6 molecules from PMC6692548, “Characterization of a phospholipid‐regulated β‐galactosidase from Akkermansia muciniphila involved in mucin degradation” (MicrobiologyOpen, 2019) can be followed below.

The target in series [1] is T1, Amuc_1686_short (Akkermansia muciniphila, UniProt B2UM60).
T1 construct: gene Amuc_1686; signal peptide removed, last 107 amino acids (C-terminal discoidin domain) deleted; N-terminal Strep-tag (pASK-IBA5), E. coli BL21(DE3); primers start at codons AAPMPF and end in DNGPH-stop
T1 sequence (B2UM60 18-673): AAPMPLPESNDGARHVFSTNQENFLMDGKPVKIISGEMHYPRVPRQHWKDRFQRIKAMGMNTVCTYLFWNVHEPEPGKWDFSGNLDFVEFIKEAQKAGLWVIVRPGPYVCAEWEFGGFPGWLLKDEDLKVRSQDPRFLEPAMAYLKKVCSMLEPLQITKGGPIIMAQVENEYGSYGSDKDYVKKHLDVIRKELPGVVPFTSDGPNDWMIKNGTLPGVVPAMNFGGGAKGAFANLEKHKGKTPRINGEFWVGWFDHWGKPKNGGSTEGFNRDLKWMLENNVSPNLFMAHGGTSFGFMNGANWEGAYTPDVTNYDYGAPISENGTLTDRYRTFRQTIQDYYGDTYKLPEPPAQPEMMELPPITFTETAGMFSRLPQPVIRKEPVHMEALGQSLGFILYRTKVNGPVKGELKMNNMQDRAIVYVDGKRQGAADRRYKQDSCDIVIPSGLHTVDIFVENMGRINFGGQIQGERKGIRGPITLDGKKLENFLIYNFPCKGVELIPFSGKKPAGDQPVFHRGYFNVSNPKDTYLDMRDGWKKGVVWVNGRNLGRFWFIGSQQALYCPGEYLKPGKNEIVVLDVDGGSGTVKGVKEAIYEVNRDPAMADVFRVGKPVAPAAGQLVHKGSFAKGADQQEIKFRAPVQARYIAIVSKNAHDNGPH
The experiment in a line: photometric 4-nitrophenol release. The class given is biochemical. The conditions noted are these: 5 mM substrate; 50 mM combined buffer pH 7.5, 37 °C.

The target of series [2] is T2, Amuc_1686 (Akkermansia muciniphila, UniProt B2UM60).
T2 construct: GH35 beta-galactosidase with C-terminal truncated discoidin (F5/8 type C) domain; signal peptide removed (predicted cleavage between 17 and 18), N-terminal Strep-tag kept (pASK-IBA5), E. coli BL21(DE3); 87 kDa tagged (86 kDa encoded); monomer; primers start at codons AAPMPF and end in FKPAK-stop
T2 sequence (B2UM60 18-780): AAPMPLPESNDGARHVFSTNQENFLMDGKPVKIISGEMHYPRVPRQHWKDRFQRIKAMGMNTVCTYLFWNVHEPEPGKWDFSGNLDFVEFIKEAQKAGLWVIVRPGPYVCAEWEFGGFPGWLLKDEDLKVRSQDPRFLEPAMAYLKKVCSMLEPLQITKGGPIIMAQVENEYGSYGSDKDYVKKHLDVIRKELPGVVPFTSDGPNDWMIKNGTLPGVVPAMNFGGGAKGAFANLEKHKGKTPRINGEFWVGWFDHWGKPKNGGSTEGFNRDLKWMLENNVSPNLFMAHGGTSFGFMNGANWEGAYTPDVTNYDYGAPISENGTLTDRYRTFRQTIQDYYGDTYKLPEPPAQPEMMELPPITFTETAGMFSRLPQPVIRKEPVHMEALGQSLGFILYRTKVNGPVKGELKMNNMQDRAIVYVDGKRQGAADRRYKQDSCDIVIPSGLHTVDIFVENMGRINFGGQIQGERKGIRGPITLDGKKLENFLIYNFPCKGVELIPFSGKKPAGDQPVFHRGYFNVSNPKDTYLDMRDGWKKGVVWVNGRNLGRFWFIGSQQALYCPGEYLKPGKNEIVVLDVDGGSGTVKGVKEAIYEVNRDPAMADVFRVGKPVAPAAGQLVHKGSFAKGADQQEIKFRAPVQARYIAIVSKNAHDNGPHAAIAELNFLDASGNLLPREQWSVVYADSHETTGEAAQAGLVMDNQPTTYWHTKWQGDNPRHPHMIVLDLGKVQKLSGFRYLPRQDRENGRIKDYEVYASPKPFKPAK
Nature of the series: photometric 4-nitrophenol release. The following applies: 5 mM 4-nitrophenyl beta-D-galactopyranoside; 50 mM combined buffer pH 7.5, 37 °C; lipid added in methanol; non-competitive; acyl chains not given. It counts as biochemical.

Substrate in series [3]: O=[N+]([O-])c1ccc(O[C@@H]2O[C@H](CO)[C@H](O)[C@H](O)[C@H]2O)cc1
Nature of the series: purified protein. The conditions noted are these: 50 mM combined buffer pH 7.5, 65 °C.

As to `O=[N+]([O-])c1ccc(O[C@@H]2O[C@H](CO)[C@H](O)[C@H](O)[C@H]2O)cc1` [para‐nitrophenyl‐β‐D‐galactopyranoside], the “photometric 4-nitrophenol release” value in series [1] is listed as “the shortened variant exhibited a slightly decreased enzymatic activity”. Usually IC50 stands for the point on the concentration scale where inhibition reaches its midpoint. In the case of lysophosphatidic acid [LPA], the IC50 in series [2] turned out to be 13.6 ± 10.6 µM. Still for that read-out and setting: as for phosphatidic acid [PA], the figure is 4.3 ± 0.2 µM; as for phosphatidylglycerol [PG], 1 ± 0.1 µM. On the same count and under the same terms, the figure for phosphatidylserine [PS] is 29.3 ± 1.5 µM.

B1: Amuc_1686 (Akkermansia muciniphila ATCC BAA-835) (protein)
chain: AAPMPLPESNDGARHVFSTNQENFLMDGKPVKIISGEMHYPRVPRQHWKDRFQRIKAMGMNTVCTYLFWNVHEPEPGKWDFSGNLDFVEFIKEAQKAGLWVIVRPGPYVCAEWEFGGFPGWLLKDEDLKVRSQDPRFLEPAMAYLKKVCSMLEPLQITKGGPIIMAQVENEYGSYGSDKDYVKKHLDVIRKELPGVVPFTSDGPNDWMIKNGTLPGVVPAMNFGGGAKGAFANLEKHKGKTPRINGEFWVGWFDHWGKPKNGGSTEGFNRDLKWMLENNVSPNLFMAHGGTSFGFMNGANWEGAYTPDVTNYDYGAPISENGTLTDRYRTFRQTIQDYYGDTYKLPEPPAQPEMMELPPITFTETAGMFSRLPQPVIRKEPVHMEALGQSLGFILYRTKVNGPVKGELKMNNMQDRAIVYVDGKRQGAADRRYKQDSCDIVIPSGLHTVDIFVENMGRINFGGQIQGERKGIRGPITLDGKKLENFLIYNFPCKGVELIPFSGKKPAGDQPVFHRGYFNVSNPKDTYLDMRDGWKKGVVWVNGRNLGRFWFIGSQQALYCPGEYLKPGKNEIVVLDVDGGSGTVKGVKEAIYEVNRDPAMADVFRVGKPVAPAAGQLVHKGSFAKGADQQEIKFRAPVQARYIAIVSKNAHDNGPHAAIAELNFLDASGNLLPREQWSVVYADSHETTGEAAQAGLVMDNQPTTYWHTKWQGDNPRHPHMIVLDLGKVQKLSGFRYLPRQDRENGRIKDYEVYASPKPFKPAK
By Km is commonly meant the substrate concentration at which the rate is half of its maximum. The kcat is the maximal rate divided by the concentration of active sites. As for B1, in series [3], the Km is 0.5 ± 0.3 mM and the kcat worked out at 530.3 ± 87.1 s⁻¹.
